The values below come from ChEMBL document CHEMBL3259702, “Discovery of GS-9973, a selective and orally efficacious inhibitor of spleen tyrosine kinase” (J Med Chem, 2014).

≈ marks a conversion by molar mass, not a printed value. Some results are limits rather than exact numbers.

Data set [1] is described as follows: Clearance in Sprague-Dawley rat at 10 mg/kg, po. Type of data set: ADME, organism-based. Also on record: dose 10 mg/kg, route oral. Conditions: in vivo.
Data set [2] is described as follows: Lipophilicity, change in log P of the compound. Conditions: octanol/water.
A short description of data set [3]: Oral bioavailability in Sprague-Dawley rat at 10 mg/kg. Type of data set: ADME, organism-based. Particulars: in vivo.
Data set [4] is described as follows: Clearance in human liver microsomes at 3 uM by LC/MS/MS analysis. It counts as ADME. For orientation: Liver microsomes are vesicles of endoplasmic reticulum, rich in cytochrome P450 enzymes.
The target in data set [5] is T1, Tyrosine-protein kinase SYK (Homo sapiens, UniProt P43405).
Description: Inhibition of Syk in antihuman IgM-stimulated human Ramos cells assessed as decrease in BCR-mediated BLNK phosphorylation by cellular assay
Data set [6] addresses T1, Tyrosine-protein kinase SYK. The source holds these as a separate data set.
Description: Inhibition of full length Syk (unknown origin) using biotinylated peptide substrate
The target is the same in data set [7]. The source holds these as a separate data set.
Description: Inhibition of Syk in goat antihuman IgE-induced CD63 expression in human whole blood by FACS analysis
The target in the next data set is Cytochrome P450 2C9 (Homo sapiens, UniProt P11712). As to the kind of experiment: Inhibition of CYP2C9 (unknown origin). It counts as ADME.
Data set [8] is described as follows: Solubility of the compound in crystalline form in simulated intestinal fluid under fed condition. It counts as physicochemical.
Data set [9] is described as follows: Oral bioavailability in non-naive beagle dog at 1 mg/kg. It counts as ADME, organism-based, Canis lupus familiaris. Conditions: in vivo.
Data set [10] is described as follows: Clearance in Sprague-Dawley rat at 0.4 mg/kg, iv. It counts as ADME, organism-based. Also on record: dose 0.4 mg/kg, route intravenous. Conditions: in vivo.
The nature of data set [11]: Unbound fraction in human plasma. Type of data set: ADME, cell-free.
In data set [12] the target is Mast/stem cell growth factor receptor Kit (Mus musculus, UniProt P05532). As to the kind of experiment: Inhibition of cKit in stem cell factor-stimulated bone marrow derived mouse mast cells assessed as phosphorylation after 1 hr incubation.
The target in data set [13] is Vascular endothelial growth factor receptor 2 (Homo sapiens, UniProt P35968). As to the kind of experiment: Inhibition of KDR in VEGF-stimulated HUVEC assessed as phosphorylation after 1 hr incubation.
Data set [14] is described as follows: Plasma protein binding in human at 1 mg/kg, po after 24 hrs by LC-MS/MS analysis. Type of data set: ADME, organism-based. Particulars: read-out: PPB (converted). Also on record: dose 1 mg/kg, route oral.
Data set [15] concerns the target Tyrosine-protein kinase JAK2 (Homo sapiens, UniProt O60674). The data set can be described thus: Inhibition of Jak2 in erythropoietin-stimulated human TF1 cells assessed as assessed as phospho-Stat5 after 1 hr incubation. It counts as cell-based, TF-1.
Data set [16] relates to Rattus norvegicus. As to the kind of experiment: Antiinflammatory activity in po dosed Lewis rat collagen-induced arthritis model assessed as disease parameter measured as knee inflammation treated twice daily on arthritic days 0 to 7 by histological analysis.
Data set [17] in a line: Half life in human liver microsomes at 3 uM by LC/MS/MS analysis. Type of data set: ADME.
The next data set deals with Cytochrome P450 2C19 (Homo sapiens, UniProt P33261). The data set can be described thus: Inhibition of CYP2C19 (unknown origin). Type of data set: ADME.
A short description of data set [18]: Oral bioavailability in Sprague-Dawley rat at 1 mg/kg. It counts as ADME, organism-based. Particulars: in vivo.
The test system of data set [19] is Rattus norvegicus. As to the kind of experiment: Antiinflammatory activity in po dosed Lewis rat collagen-induced arthritis model assessed as disease parameter measured as ankle diameter treated twice daily on arthritic days 0 to 7.
Data set [20] deals with Rattus norvegicus. As to the kind of experiment: Antiinflammatory activity in po dosed Lewis rat collagen-induced arthritis model assessed as disease parameter measured as peritosteal bone width treated twice daily on arthritic days 0 to 7 by histological analysis.
The target in a further data set is Cytochrome P450 2D6 (Homo sapiens, UniProt P10635). The data set can be described thus: Inhibition of CYP2D6 (unknown origin). It counts as ADME.
Data set [21] in a line: Volume of distribution at steady state in non-naive beagle dog at 0.4 mg/kg, iv. Conditions: in vivo, read-out: Vdss. It counts as ADME, organism-based, Canis lupus familiaris. Also on record: dose 0.4 mg/kg, route intravenous.
The nature of data set [22]: Solubility of the compound in crystalline form in simulated intestinal fluid under fasted condition. It counts as physicochemical.
Data set [23] can be described thus: Volume of distribution at steady state in Sprague-Dawley rat at 0.4 mg/kg, iv. It counts as ADME, organism-based. Also on record: dose 0.4 mg/kg, route intravenous. Conditions: in vivo, read-out: Vdss.
The nature of data set [24]: Plasma protein binding in Sprague-Dawley rat at 1 mg/kg, po after 24 hrs by LC-MS/MS analysis. Type of data set: ADME, organism-based. Also on record: dose 1 mg/kg, route oral. Particulars: read-out: PPB (converted).
For data set [25], the target named is Tyrosine-protein kinase SYK (Rattus norvegicus, UniProt Q64725). As to the kind of experiment: In vitro inhibition of Syk phosphorylation in rat whole blood. Type of data set: tissue-based.
The next data set concerns the target T2, Cytochrome P450 1A2 (Homo sapiens, UniProt P05177).
T2 sequence (P05177 whole entry): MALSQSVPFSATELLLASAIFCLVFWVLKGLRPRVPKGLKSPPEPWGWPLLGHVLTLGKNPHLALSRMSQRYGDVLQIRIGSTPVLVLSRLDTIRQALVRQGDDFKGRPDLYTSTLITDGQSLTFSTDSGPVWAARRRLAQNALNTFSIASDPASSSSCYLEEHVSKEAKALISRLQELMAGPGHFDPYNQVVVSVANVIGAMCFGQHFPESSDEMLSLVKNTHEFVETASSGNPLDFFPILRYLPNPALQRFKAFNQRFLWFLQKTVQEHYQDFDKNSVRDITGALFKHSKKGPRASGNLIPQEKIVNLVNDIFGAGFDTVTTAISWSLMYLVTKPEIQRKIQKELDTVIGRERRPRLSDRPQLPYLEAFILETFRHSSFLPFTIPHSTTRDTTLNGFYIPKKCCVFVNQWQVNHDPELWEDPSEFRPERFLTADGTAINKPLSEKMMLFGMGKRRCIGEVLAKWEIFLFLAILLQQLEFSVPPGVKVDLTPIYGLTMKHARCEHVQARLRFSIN
The data set can be described thus: Inhibition of CYP1A2 (unknown origin). Type of data set: ADME.

In data set [26] the target is Proto-oncogene tyrosine-protein kinase receptor Ret (Homo sapiens, UniProt P07949). As to the kind of experiment: Inhibition of Ret in human […] cells assessed as assessed as phosphorylation after 1 hr incubation. It counts as cell-based.
Data set [27] can be described thus: Plasma protein binding in non-naive beagle dog at 1 mg/kg, po after 24 hrs by LC-MS/MS analysis. It counts as ADME, organism-based, Canis lupus familiaris. Also on record: dose 1 mg/kg, route oral. Particulars: read-out: PPB (converted).
Data set [28] in a line: Half life in dog liver microsomes at 3 uM by LC/MS/MS analysis. It counts as ADME, Canis lupus familiaris.
Data set [29] in a line: Apparent permeability from apical to basolateral side in human Caco2 cells at 5 uM. Conditions: Caco-2. Type of data set: ADME, cell-based. A general note: Caco-2 cells form a polarised layer with tight junctions and transporters.
Data set [30] concerns Rattus norvegicus. The data set can be described thus: Antiinflammatory activity in po dosed Lewis rat collagen-induced arthritis model assessed as disease parameter measured as ankle inflammation treated twice daily on arthritic days 0 to 7 by histological analysis.
The nature of data set [31]: Half life in rat liver microsomes at 3 uM by LC/MS/MS analysis. It counts as ADME.
A short description of data set [32]: Apparent permeability from basolateral to apical side in human Caco2 cells at 5 uM. Type of data set: ADME, cell-based. Conditions: Caco-2.
Data set [33] can be described thus: Clearance in non-naive beagle dog at 0.4 mg/kg, iv. It counts as ADME, organism-based, Canis lupus familiaris. Also on record: dose 0.4 mg/kg, route intravenous. Conditions: in vivo.
For data set [34], the system named is Rattus norvegicus. The data set can be described thus: Antiinflammatory activity in po dosed Lewis rat collagen-induced arthritis model assessed as disease parameter measured as body weight treated twice daily on arthritic days 0 to 7.

Mast/stem cell growth factor receptor Kit, sequence (P05532 whole entry): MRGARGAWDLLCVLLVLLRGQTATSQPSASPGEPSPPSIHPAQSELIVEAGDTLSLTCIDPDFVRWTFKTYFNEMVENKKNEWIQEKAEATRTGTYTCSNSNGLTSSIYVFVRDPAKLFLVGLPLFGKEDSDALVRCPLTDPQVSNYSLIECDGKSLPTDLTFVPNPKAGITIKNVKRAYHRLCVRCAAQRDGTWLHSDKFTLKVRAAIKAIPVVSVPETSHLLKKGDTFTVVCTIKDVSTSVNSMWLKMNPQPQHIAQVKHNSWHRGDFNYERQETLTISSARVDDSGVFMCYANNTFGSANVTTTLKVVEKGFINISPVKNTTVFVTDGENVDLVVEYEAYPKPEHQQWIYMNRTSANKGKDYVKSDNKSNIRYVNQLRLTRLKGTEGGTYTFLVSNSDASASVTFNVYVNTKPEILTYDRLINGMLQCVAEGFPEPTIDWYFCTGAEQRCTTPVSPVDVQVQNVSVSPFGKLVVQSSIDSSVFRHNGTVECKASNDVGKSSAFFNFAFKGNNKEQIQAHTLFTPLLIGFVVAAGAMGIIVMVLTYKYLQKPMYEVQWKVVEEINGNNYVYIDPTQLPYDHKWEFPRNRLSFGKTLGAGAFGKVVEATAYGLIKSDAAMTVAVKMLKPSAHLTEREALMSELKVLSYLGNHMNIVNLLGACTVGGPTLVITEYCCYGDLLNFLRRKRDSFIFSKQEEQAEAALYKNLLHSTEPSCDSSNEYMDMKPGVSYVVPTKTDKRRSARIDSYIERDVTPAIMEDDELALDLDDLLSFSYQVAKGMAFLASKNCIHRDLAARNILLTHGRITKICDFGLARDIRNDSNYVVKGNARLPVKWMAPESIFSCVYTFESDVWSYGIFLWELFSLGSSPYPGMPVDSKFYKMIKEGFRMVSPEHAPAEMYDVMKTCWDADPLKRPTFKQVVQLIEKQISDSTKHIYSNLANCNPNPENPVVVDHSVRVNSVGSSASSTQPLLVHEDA
Tyrosine-protein kinase JAK2, sequence (O60674 whole entry): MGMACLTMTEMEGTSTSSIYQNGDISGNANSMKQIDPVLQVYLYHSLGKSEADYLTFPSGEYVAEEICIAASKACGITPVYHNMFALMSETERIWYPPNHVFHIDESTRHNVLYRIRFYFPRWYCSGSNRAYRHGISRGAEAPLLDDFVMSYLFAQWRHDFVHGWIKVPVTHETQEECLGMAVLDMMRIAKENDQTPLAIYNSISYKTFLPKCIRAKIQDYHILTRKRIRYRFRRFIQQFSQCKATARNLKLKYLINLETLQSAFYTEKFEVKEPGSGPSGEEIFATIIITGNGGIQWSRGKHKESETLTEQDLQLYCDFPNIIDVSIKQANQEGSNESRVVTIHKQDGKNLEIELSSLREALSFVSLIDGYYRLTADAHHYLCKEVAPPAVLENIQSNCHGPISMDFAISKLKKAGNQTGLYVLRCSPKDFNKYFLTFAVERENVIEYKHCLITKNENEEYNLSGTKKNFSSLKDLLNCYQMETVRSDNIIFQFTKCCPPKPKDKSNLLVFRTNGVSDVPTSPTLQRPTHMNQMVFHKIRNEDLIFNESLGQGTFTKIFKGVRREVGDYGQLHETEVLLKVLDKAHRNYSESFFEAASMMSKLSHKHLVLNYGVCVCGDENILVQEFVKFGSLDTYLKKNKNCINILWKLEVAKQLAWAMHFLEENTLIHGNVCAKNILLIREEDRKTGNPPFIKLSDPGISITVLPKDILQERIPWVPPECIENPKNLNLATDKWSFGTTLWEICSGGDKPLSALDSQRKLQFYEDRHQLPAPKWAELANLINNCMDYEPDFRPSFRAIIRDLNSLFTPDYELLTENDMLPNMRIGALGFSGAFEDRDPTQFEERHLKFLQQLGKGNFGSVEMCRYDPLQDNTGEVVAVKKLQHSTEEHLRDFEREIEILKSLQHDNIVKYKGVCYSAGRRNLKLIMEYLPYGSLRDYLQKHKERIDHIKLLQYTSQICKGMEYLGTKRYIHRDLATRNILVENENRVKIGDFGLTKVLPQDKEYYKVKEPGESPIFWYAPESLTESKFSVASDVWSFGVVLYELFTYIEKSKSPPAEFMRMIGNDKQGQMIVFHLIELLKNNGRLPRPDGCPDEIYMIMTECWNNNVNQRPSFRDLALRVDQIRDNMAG
Cytochrome P450 2C9, sequence (P11712 whole entry): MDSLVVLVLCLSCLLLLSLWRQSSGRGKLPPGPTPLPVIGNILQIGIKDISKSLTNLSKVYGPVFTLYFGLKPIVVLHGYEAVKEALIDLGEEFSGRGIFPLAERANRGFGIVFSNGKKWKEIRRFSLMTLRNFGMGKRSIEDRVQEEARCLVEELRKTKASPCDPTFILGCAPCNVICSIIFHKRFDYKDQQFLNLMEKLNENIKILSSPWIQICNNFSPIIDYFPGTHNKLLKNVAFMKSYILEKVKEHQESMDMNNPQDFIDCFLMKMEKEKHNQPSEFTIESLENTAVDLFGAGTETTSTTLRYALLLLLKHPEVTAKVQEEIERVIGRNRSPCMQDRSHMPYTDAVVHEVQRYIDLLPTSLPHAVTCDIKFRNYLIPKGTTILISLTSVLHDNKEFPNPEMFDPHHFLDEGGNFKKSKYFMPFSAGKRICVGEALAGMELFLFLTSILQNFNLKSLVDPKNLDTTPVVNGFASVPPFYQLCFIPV
Proto-oncogene tyrosine-protein kinase receptor Ret, sequence (P07949 whole entry): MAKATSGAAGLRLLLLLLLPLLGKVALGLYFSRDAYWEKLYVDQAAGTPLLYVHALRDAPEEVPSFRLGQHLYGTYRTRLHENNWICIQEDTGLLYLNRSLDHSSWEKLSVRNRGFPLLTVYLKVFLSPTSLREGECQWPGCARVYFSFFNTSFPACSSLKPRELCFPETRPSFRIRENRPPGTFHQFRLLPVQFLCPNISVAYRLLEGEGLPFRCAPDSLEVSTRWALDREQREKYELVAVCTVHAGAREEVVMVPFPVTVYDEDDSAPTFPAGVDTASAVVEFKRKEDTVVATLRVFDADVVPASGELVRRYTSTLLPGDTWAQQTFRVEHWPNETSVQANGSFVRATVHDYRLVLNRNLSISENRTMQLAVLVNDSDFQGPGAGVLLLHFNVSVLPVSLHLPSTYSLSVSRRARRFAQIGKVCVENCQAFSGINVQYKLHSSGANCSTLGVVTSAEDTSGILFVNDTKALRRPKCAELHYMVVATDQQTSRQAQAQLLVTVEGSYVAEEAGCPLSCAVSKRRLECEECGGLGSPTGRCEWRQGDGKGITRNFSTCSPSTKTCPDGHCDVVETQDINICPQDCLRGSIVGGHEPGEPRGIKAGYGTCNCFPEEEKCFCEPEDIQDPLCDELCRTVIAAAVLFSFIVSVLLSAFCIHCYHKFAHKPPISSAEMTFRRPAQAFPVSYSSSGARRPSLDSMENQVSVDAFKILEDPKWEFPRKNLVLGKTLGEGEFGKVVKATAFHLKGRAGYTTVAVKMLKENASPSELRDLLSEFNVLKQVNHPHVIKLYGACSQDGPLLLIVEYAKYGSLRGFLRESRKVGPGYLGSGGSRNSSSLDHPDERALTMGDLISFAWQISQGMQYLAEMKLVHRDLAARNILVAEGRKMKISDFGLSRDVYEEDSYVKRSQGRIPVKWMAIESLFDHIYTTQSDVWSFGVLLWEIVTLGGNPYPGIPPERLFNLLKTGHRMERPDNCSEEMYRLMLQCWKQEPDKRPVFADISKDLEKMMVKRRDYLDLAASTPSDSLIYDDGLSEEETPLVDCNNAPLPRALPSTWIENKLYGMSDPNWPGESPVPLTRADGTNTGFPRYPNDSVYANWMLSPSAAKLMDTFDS
Cytochrome P450 2C19, sequence (P33261 whole entry): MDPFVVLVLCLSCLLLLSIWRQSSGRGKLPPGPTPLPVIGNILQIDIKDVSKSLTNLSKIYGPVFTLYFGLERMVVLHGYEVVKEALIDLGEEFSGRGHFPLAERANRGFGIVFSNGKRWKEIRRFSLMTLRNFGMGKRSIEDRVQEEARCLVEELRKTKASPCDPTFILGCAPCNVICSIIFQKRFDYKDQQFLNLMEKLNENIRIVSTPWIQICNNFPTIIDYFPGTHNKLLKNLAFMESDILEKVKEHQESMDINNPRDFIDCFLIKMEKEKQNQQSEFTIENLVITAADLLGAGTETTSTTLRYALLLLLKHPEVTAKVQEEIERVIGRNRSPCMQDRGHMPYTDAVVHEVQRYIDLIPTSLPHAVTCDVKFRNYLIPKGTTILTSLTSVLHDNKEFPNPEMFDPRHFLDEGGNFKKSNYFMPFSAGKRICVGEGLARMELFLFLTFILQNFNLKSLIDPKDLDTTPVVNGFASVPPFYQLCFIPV
Tyrosine-protein kinase SYK (Rattus norvegicus, UniProt Q64725), sequence (Q64725 whole entry): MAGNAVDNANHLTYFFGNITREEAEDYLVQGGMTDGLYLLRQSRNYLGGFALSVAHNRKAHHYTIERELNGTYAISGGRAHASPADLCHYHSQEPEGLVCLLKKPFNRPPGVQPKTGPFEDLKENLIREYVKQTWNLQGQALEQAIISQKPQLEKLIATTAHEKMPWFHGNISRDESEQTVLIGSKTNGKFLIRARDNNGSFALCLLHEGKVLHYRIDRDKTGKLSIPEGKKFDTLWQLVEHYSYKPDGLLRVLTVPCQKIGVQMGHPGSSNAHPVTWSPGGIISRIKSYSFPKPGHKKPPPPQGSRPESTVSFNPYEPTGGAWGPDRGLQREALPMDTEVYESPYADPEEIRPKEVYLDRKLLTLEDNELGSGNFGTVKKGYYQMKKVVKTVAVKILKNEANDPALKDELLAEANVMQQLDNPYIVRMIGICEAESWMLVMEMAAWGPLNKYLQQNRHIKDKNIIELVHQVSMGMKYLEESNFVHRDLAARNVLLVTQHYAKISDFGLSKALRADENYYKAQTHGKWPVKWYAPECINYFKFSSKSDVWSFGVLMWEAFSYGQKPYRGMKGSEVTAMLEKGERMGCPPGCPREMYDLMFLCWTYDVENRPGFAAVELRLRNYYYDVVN

`COc1ccc(Nc2nc(-c3ccc(C(N)=O)cc3)cn3ccnc23)cc1OC` showed a CL/F in data set [1] of 50.8 mL/min/kg. Moreover, the ΔlogP in data set [2] was found to be 1.4. Further, in data set [3], the bioavailability is 22%.
In data set [2], `COc1ccc(Nc2nc(-c3cccc(C(N)=O)c3)cn3ccnc23)cc1OC` registered a ΔlogP of 1.4.
Regarding `COc1ccc(Nc2nc(-c3ccc4cn[nH]c4c3)cn3ccnc23)cc1OC`, the apparent clearance (CL/F) in data set [1] was 35 mL/min/kg. The molecule further had a bioavailability in data set [3] of 36%.
Regarding `c1ccc(Nc2nc(-c3ccc4cn[nH]c4c3)cn3ccnc23)cc1`, the CLhep predicted at 3 µM in data set [4] is 8.17 mL/min/kg.
Regarding `COc1cccc(Nc2nc(-c3ccc4cn[nH]c4c3)cn3ccnc23)c1`, in [5], the concentration giving a half-maximal response (EC50) stood at 374 nM. In [6], this molecule displayed an IC50 of 8.5 nM.
On to `CC1(O)CN(c2ccc(Nc3nc(-c4ccc5cn[nH]c5c4)cn4ccnc34)cc2)C1`, for which the concentration for a half-maximal effect (EC50) in data set [7] came to 1260 nM; in [5] it was 80 nM. The molecule further came in with an IC50 in data set [6] of 3.9 nM.
`CC1(O)CCN(c2ccc(Nc3nc(-c4ccc5cn[nH]c5c4)cn4ccnc34)cc2)CC1`: in data set [4], the CLhep predicted at 3 µM was 4.5 mL/min/kg.
With `O=S1(=O)CCN(c2ccc(Nc3nc(-c4ccc5cn[nH]c5c4)cn4ccnc34)cc2)CC1`, the EC50 in data set [7] is greater than 10000 nM; in data set [5], 40 nM. Also, in data set [4], the CLhep predicted at 3 µM is 10 mL/min/kg. The same molecule yielded a 50% inhibitory concentration (IC50) in data set [6] of 2.1 nM.
The corresponding values for `c1cn2cc(-c3ccc4cn[nH]c4c3)nc(Nc3ccc(C4CCOCC4)cc3)c2n1` are greater than 10000 nM, 2370 nM, 2 mL/min/kg and 3.8 nM.
Turning to `CN(CCO)c1ccc(Nc2nc(-c3ccc4cn[nH]c4c3)cn3ccnc23)cc1`, the EC50 in data set [7] came out at 1090 nM; in [5], 42 nM. For the same molecule, the half-inhibitory concentration (IC50) in data set [6] worked out at 7.6 nM.
Consider `c1cn2cc(-c3ccc4cn[nH]c4c3)nc(Nc3ccc(N4CCCOCC4)cc3)c2n1`, for which the CLhep predicted at 3 µM in data set [4] is 5 mL/min/kg. This molecule also had a concentration for a half-maximal effect (EC50) in [5] of 73 nM. In [6], this molecule gave an IC50 of 23.1 nM.
Turning to `COc1cc(Nc2nc(-c3ccc4cn[nH]c4c3)cn3ccnc23)ccc1N1CCOCC1`, in [4], the CLhep predicted at 3 µM was 12.5 mL/min/kg.
For `c1cn2cc(-c3ccc4cn[nH]c4c3)nc(Nc3ccc(N4CCOCC4)cc3)c2n1` [ENTOSPLETINIB], the 50% inhibitory concentration (IC50) at Cytochrome P450 2C9, at Cytochrome P450 2C19, against Cytochrome P450 2D6 and on Cytochrome P450 1A2 was greater than 10000 nM each time. For the same molecule, the values for the solubility in [8] and in data set [22] were 16 µM (≈ 6.58 µg/mL) and 2 µM (≈ 0.823 µg/mL), respectively. In addition, the results for the bioavailability in [9] and in data set [18] were 53% and 67%, respectively. Besides, the clearance was 4.5 mL/min/kg in [10] and 13.3 mL/min/kg in data set [33]. For the same molecule, the fraction unbound in data set [11] was determined as 0.027. Also, the EC50 is 445 nM in data set [12]; greater than 1000 nM in data set [13]; 453 nM in data set [15]; 1900 nM in data set [25]; greater than 1000 nM in [26]. Besides, the fraction unbound at 24 h is 0.029 in [14], 0.008 in [24] and 0.072 in data set [27]. Moreover, the ED50 is 1.2 mg/kg in the data set with Rattus norvegicus [16]; 2.1 mg/kg with Rattus norvegicus [19]; 3 mg/kg with Rattus norvegicus [20]; 2.8 mg/kg in the data set with Rattus norvegicus [30]; 3.9 mg/kg in the data set with Rattus norvegicus [34]. The half-life at 3 µM in [17] was 98.6 min; in data set [28] it was 23.4 min; in data set [31], 35 min. In addition, the Vd in [21] is 1.41 L/kg; in data set [23], 0.52 L/kg. The CLhep predicted at 3 µM in data set [4] was 4.83 mL/min/kg. For the same molecule, the apical-to-basolateral permeability (Papp A→B) at 5 µM in [29] stood at 3.2 ×10⁻⁶ cm/s. In data set [32], the Papp B→A at 5 µM worked out at 1.95 ×10⁻⁶ cm/s.
Take `COc1cc(Nc2ncc(F)c(Nc3ccc4c(n3)NC(=O)C(C)(C)O4)n2)cc(OC)c1OC` [R-406]: the concentration for a half-maximal effect (EC50) in data set [12] turned out to be 46 nM.

For orientation: CL/F means the apparent clearance, not corrected for the fraction that reaches the circulation. For orientation: bioavailability means the share of a dose that reaches the circulation, judged against a reference dose that is usually intravenous. A high value points to good availability. Broadly, the EC50 is the concentration needed to bring the measured effect to its halfway point. A word on the IC50: it is the concentration that inhibits the measured activity by half. Read a high IC50 as a need for much substance. In general, solubility refers to the concentration that dissolves in the medium under given conditions. A high value points to a readily soluble substance. What is called clearance is the rate of elimination divided by the concentration. Read a high clearance as a high capacity for elimination. In general, ED50 refers to the dose at which the effect has come halfway, by size or by number of responders. For orientation: half-life means the time needed for the level to fall by half in the phase considered. Low readings indicate rapid decline, high ones slow decline. One may read the Papp A→B as the apparent permeability from the apical to the basolateral side of a cell layer. Broadly, the Papp B→A is how fast a substance crosses the layer from the basolateral side.
